# Test results reported in patent publication US20050164979A1, “Pharmaceutical composition for ophthalmological and rhinological application” (priority 2001, published 2005).
# How the values were obtained:
# [1] = system: cornea-epithelial barrier; conditions: dexpanthenol-bearing eye drops; barrier disturbed by insufficient tear film; Klinische Monatsblätter für Augenheilkunde (1996) 209; 84-88; cited from earlier work
# [2] = tear film tearing time (fluorescein, slit lamp); type: in vivo; conditions: concentration of 0.1% by weight to 0.3% by weight
# Source text: A further diagnostic parameter in regard to diagnosis of the “dry eye” syndrome is the tear film tearing time which makes it possible to provide information about the quality of the tear fluid. In that case for example the tear film is dyed with fluorescein and the patient is then asked to keep the eyes open as long as possible without a blink reflex. A slit lamp is then used to establish when the tear film tears open for the first time. If the period of time is less than 10 seconds, there is the suspicion of the “dry eye” syndrome.
# cornea epithelium = test: wound healing after injury to the cornea epithelium or cauterisation of the cornea; type: in vivo; conditions: less scarring
# [3] = system: cornea epithelium cells of rabbits; test: epithelium cell migration; type: cell-based; conditions: 0.1% by weight sodium hyaluronate solution
# [4] = subjective feeling of patients when treating dry eyes; type: in vivo; conditions: 0.1% by weight of sodium hyaluronate in the composition
# Source text: Aqueous sodium hyaluronate solutions are fluids with non-Newtonian flow properties. By virtue of that physical property, aqueous sodium hyaluronate solutions are excellently well suited as slip and lubricating agents with a good cling effect and a prolonged residence time on the conjunctival and corneal epithelia, without adversely affecting visual efficiency.
# [5] = eye drops containing at least 0.1% of sodium hyaluronate; Jpn. J. Ophthalmol. (1996) 40: 62-65; cited from earlier work
Molecule,cornea-epithelial barrier function [1],prolonging the tear film tearing time [2],wound healing (cornea epithelium),epithelium cell migration [3],subjective feeling of the patients [4],tear film stability [5]
"CC(C)(CO)[C@@H](O)C(=O)NCCCO [dexpanthenol, D-(+)-2,4-dihydroxy-N-(3-hydroxypropyl)-3,5-dimethylbutyramide]",improve the cornea-epithelial barrier function,,,,,
hyaluronic acid,,highly effective,faster and better wound healing,,,
sodium hyaluronate,,,faster and better wound healing,increased epithelium cell migration,considerably improves,improvement in tear film stability
